# How the values were obtained:
# [1] = test system: LNCaP tumor-bearing mice; assay: Ex vivo biodistribution in LNCaP tumor-bearing mice; set-up: species or system mouse
# Procedure: (§1) Imaging, biodistribution and radioligand therapy experiments were performed following previously published procedures using male NOD-scid IL2Rg^null (NSG) or NOD.Cg-Rag1^tm1MomIl2rg^tm1Wjl/SzJ (NRG) mice [10]-[12],[14]-[15]. The experiments were conducted according to the guidelines established by the Canadian Council on Animal Care and approved by Animal Ethics Committee of the University of British Columbia. The mice were briefly sedated by inhalation of 2% isoflurane in oxygen, and implanted subcutaneously with 1×10^7 LNCaP cells behind the left shoulder. The mice were imaged or used in biodistribution studies when the tumor grew to 5-8 mm in diameter over a period of 4-5 weeks.
# For biodistribution studies, the mice were injected with the radioligand (2-4 MBq) as described above. For blocking, the mice were co-injected with nonradioactive DCFPyL (0.5 mg). At predetermined time points, the mice were sedated by isoflurane inhalation and euthanized by CO2 inhalation. Blood was withdrawn by cardiac puncture, and organs/tissues of interest were collected, weighed and counted using an automatic gamma counter (Tables S4-S7).
# [2] = test system: LNCaP tumor-bearing mice; assay: Radioligand therapy study in LNCaP tumor-bearing mice; format: in vivo, mouse
# Procedure: as §1
# For radiotherapy study, tumor-bearing mice were injected with saline (the control group), [^177Lu]Lu-PSMA-617 (37 MBq) or [^177Lu]-HTK03170 (37, 18.5 and 9.3 MBq) (n = 7-8 per treatment group). Tumor size and body weight were measured twice a week from the date of injection (Day 0) until completion of the study (Day 180). Endpoint criteria were defined as > 20% weight loss, tumor volume > 1000 mm^3, or active ulceration of the tumor.
# [3] = Radiation dosimetry for major organs of 25-g mice (OLINDA, MOBY phantom); format: in vivo, mouse
# Procedure: Internal dosimetry estimates were calculated using the organ level internal dose assessment (OLINDA) software v.2.2 following our previously published procedures. These estimates were performed for the mouse using the 25g MOBY phantom, and for the tumors using the previously reported unit density sphere model. Both the phantom and the sphere model are available in OLINDA and require the input of the total number of decays normalized by injected activity in units of MBq×h/MBq for each of the source organ/tumor.
# The biodistribution data (available in Table S5-S7) were used to determine the kinetics input values required by OLINDA. First, each of the values was decayed to its corresponding time point (the values on the table are shown at injection time). Then the different time-points of the uptake data (%ID/g) for each organ were fitted to both mono-exponential (%ID/g = ae^⎯bt) and bi-exponential (%ID/g = ae^⎯bt + ce^⎯dt) functions using in-house software developed in Python. The best fit was selected based on maximizing the coefficient of determination (R^2) of the fit and minimizing the residuals. The areas under the curves were analytically calculated based on the parameters obtained from the best fit of each organ and this provided the kinetic input values required by OLINDA.
# In the mouse case, the adrenals, blood, fat, and muscle are not modeled in the phantom. These organs were grouped together and included in what OLINDA calls the remainder of the body. Lastly, the numbers of decays in the tumors were also calculated based on the biodistribution data of the mice and the values were inputted into the sphere model available in OLINDA.
structure (smiles),measurement,setting,value
COc1ccc(CCCC(=O)NCC(=O)N[C@@H](CCCCNC(=O)CN2CCN(CC(=O)[O-])CCN(CC(=O)[O-])CCN(CC(=O)[O-])CC2)C(=O)NC[C@H]2CC[C@H](C(=O)N[C@@H](Cc3c4ccccc4cc4ccccc34)C(=O)NCCCC[C@H](NC(=O)N[C@@H](CCCC(=O)O)C(=O)O)C(=O)O)CC2)cc1.[177Lu+3] [[^177Lu]Lu-HTK03170],Adrenal glands uptake,[1]; 1 h post-injection,3.34 ± 0.45 %ID/g
same,Blood uptake,[1]; 1 h post-injection,16.9 ± 1.97 %ID/g
same,Blood:Salivary gland uptake ratio,[1]; 1 h post-injection,7.04 ± 0.86
same,Bone uptake,[1]; 1 h post-injection,0.89 ± 0.27 %ID/g
same,Brain uptake,[1]; 1 h post-injection,0.23 ± 0.04 %ID/g
same,Fat uptake,[1]; 1 h post-injection,1.38 ± 0.45 %ID/g
same,Heart uptake,[1]; 1 h post-injection,3.60 ± 0.52 %ID/g
same,Intestines uptake,[1]; 1 h post-injection,1.19 ± 0.25 %ID/g
same,Kidneys uptake,[1]; 1 h post-injection,13.2 ± 1.87 %ID/g
same,Lacrimal glands uptake,[1]; 1 h post-injection,0.27 ± 0.08 %ID/g
same,Liver uptake,[1]; 1 h post-injection,2.67 ± 0.37 %ID/g
same,Lungs uptake,[1]; 1 h post-injection,8.06 ± 1.48 %ID/g
same,Muscle uptake,[1]; 1 h post-injection,1.15 ± 0.19 %ID/g
same,Pancreas uptake,[1]; 1 h post-injection,1.41 ± 0.31 %ID/g
same,Salivary glands uptake,[1]; 1 h post-injection,2.43 ± 0.33 %ID/g
same,Spleen uptake,[1]; 1 h post-injection,1.64 ± 0.83 %ID/g
same,Stomach uptake,[1]; 1 h post-injection,0.59 ± 0.12 %ID/g
same,Testes uptake,[1]; 1 h post-injection,2.17 ± 0.32 %ID/g
same,Thyroid uptake,[1]; 1 h post-injection,2.90 ± 0.41 %ID/g
same,Tumor uptake,[1]; 1 h post-injection,27.2 ± 7.55 %ID/g
same,Tumor:Blood uptake ratio,[1]; 1 h post-injection,1.58 ± 0.26
same,Tumor:Kidney uptake ratio,[1]; 1 h post-injection,2.07 ± 0.55
same,Tumor:Muscle uptake ratio,[1]; 1 h post-injection,23.5 ± 4.66
same,Tumor:Salivary gland uptake ratio,[1]; 1 h post-injection,11.3 ± 2.76
same,Adrenal glands uptake,[1]; 4 h post-injection,1.78 ± 0.45 %ID/g
same,Blood uptake,[1]; 4 h post-injection,8.34 ± 1.67 %ID/g
same,Blood:Salivary gland uptake ratio,[1]; 4 h post-injection,6.48 ± 1.02
same,Bone uptake,[1]; 4 h post-injection,0.45 ± 0.13 %ID/g
same,Brain uptake,[1]; 4 h post-injection,0.13 ± 0.03 %ID/g
same,Fat uptake,[1]; 4 h post-injection,0.60 ± 0.13 %ID/g
same,Heart uptake,[1]; 4 h post-injection,1.91 ± 0.40 %ID/g
same,Intestines uptake,[1]; 4 h post-injection,0.61 ± 0.17 %ID/g
same,Kidneys uptake,[1]; 4 h post-injection,9.23 ± 2.18 %ID/g
same,Lacrimal glands uptake,[1]; 4 h post-injection,0.15 ± 0.07 %ID/g
same,Liver uptake,[1]; 4 h post-injection,1.89 ± 0.69 %ID/g
same,Lungs uptake,[1]; 4 h post-injection,4.35 ± 0.82 %ID/g
same,Muscle uptake,[1]; 4 h post-injection,0.58 ± 0.13 %ID/g
same,Pancreas uptake,[1]; 4 h post-injection,0.74 ± 0.18 %ID/g
same,Salivary glands uptake,[1]; 4 h post-injection,1.31 ± 0.30 %ID/g
same,Spleen uptake,[1]; 4 h post-injection,0.96 ± 0.29 %ID/g
same,Stomach uptake,[1]; 4 h post-injection,0.42 ± 0.15 %ID/g
same,Testes uptake,[1]; 4 h post-injection,1.83 ± 0.58 %ID/g
same,Thyroid uptake,[1]; 4 h post-injection,1.62 ± 0.42 %ID/g
same,Tumor uptake,[1]; 4 h post-injection,47.6 ± 13.5 %ID/g
same,Tumor:Blood uptake ratio,[1]; 4 h post-injection,5.81 ± 1.58
same,Tumor:Kidney uptake ratio,[1]; 4 h post-injection,5.38 ± 1.91
same,Tumor:Muscle uptake ratio,[1]; 4 h post-injection,83.1 ± 17.0
same,Tumor:Salivary gland uptake ratio,[1]; 4 h post-injection,36.4 ± 5.35
same,Adrenal glands uptake,[1]; 24 h post-injection,0.50 ± 0.16 %ID/g
same,Blood uptake,[1]; 24 h post-injection,0.59 ± 0.13 %ID/g
same,Blood:Salivary gland uptake ratio,[1]; 24 h post-injection,2.11 ± 0.47
same,Bone uptake,[1]; 24 h post-injection,0.06 ± 0.04 %ID/g
same,Brain uptake,[1]; 24 h post-injection,0.02 ± 0.01 %ID/g
same,Fat uptake,[1]; 24 h post-injection,0.12 ± 0.04 %ID/g
same,Heart uptake,[1]; 24 h post-injection,0.26 ± 0.04 %ID/g
same,Intestines uptake,[1]; 24 h post-injection,0.18 ± 0.07 %ID/g
same,Kidneys uptake,[1]; 24 h post-injection,5.80 ± 1.24 %ID/g
same,Lacrimal glands uptake,[1]; 24 h post-injection,0.04 ± 0.03 %ID/g
same,Liver uptake,[1]; 24 h post-injection,0.69 ± 0.27 %ID/g
same,Lungs uptake,[1]; 24 h post-injection,0.72 ± 0.19 %ID/g
same,Muscle uptake,[1]; 24 h post-injection,0.08 ± 0.02 %ID/g
same,Pancreas uptake,[1]; 24 h post-injection,0.12 ± 0.03 %ID/g
same,Salivary glands uptake,[1]; 24 h post-injection,0.28 ± 0.04 %ID/g
same,Spleen uptake,[1]; 24 h post-injection,0.45 ± 0.10 %ID/g
same,Stomach uptake,[1]; 24 h post-injection,0.25 ± 0.13 %ID/g
same,Testes uptake,[1]; 24 h post-injection,0.64 ± 0.53 %ID/g
same,Thyroid uptake,[1]; 24 h post-injection,0.37 ± 0.06 %ID/g
same,Tumor uptake,[1]; 24 h post-injection,57.2 ± 15.3 %ID/g
same,Tumor:Blood uptake ratio,[1]; 24 h post-injection,105 ± 57.4
same,Tumor:Kidney uptake ratio,[1]; 24 h post-injection,10.5 ± 4.77
same,Tumor:Muscle uptake ratio,[1]; 24 h post-injection,736 ± 333
same,Tumor:Salivary gland uptake ratio,[1]; 24 h post-injection,202 ± 49.3
same,Adrenal glands uptake,[1]; 72 h post-injection,0.27 ± 0.11 %ID/g
same,Blood uptake,[1]; 72 h post-injection,0.06 ± 0.02 %ID/g
same,Blood:Salivary gland uptake ratio,[1]; 72 h post-injection,0.57 ± 0.17
same,Bone uptake,[1]; 72 h post-injection,0.03 ± 0.02 %ID/g
same,Brain uptake,[1]; 72 h post-injection,0.01 ± 0.00 %ID/g
same,Fat uptake,[1]; 72 h post-injection,0.04 ± 0.02 %ID/g
same,Heart uptake,[1]; 72 h post-injection,0.09 ± 0.03 %ID/g
same,Intestines uptake,[1]; 72 h post-injection,0.14 ± 0.11 %ID/g
same,Kidneys uptake,[1]; 72 h post-injection,2.56 ± 0.62 %ID/g
same,Lacrimal glands uptake,[1]; 72 h post-injection,0.01 ± 0.01 %ID/g
same,Liver uptake,[1]; 72 h post-injection,0.36 ± 0.13 %ID/g
same,Lungs uptake,[1]; 72 h post-injection,0.18 ± 0.04 %ID/g
same,Muscle uptake,[1]; 72 h post-injection,0.02 ± 0.01 %ID/g
same,Pancreas uptake,[1]; 72 h post-injection,0.04 ± 0.01 %ID/g
same,Salivary glands uptake,[1]; 72 h post-injection,0.11 ± 0.03 %ID/g
same,Spleen uptake,[1]; 72 h post-injection,0.38 ± 0.15 %ID/g
same,Stomach uptake,[1]; 72 h post-injection,0.28 ± 0.33 %ID/g
same,Testes uptake,[1]; 72 h post-injection,0.24 ± 0.04 %ID/g
same,Thyroid uptake,[1]; 72 h post-injection,0.15 ± 0.01 %ID/g
same,Tumor uptake,[1]; 72 h post-injection,59.3 ± 16.0 %ID/g
same,Tumor:Blood uptake ratio,[1]; 72 h post-injection,1029 ± 459
same,Tumor:Kidney uptake ratio,[1]; 72 h post-injection,24.0 ± 6.93
same,Tumor:Muscle uptake ratio,[1]; 72 h post-injection,3374 ± 1417
same,Tumor:Salivary gland uptake ratio,[1]; 72 h post-injection,566 ± 236
same,Adrenal glands uptake,[1]; 120 h post-injection,0.23 ± 0.18 %ID/g
same,Blood uptake,[1]; 120 h post-injection,0.02 ± 0.01 %ID/g
same,Blood:Salivary gland uptake ratio,[1]; 120 h post-injection,0.31 ± 0.06
same,Bone uptake,[1]; 120 h post-injection,0.02 ± 0.01 %ID/g
same,Fat uptake,[1]; 120 h post-injection,0.04 ± 0.03 %ID/g
same,Heart uptake,[1]; 120 h post-injection,0.05 ± 0.02 %ID/g
same,Intestines uptake,[1]; 120 h post-injection,0.05 ± 0.06 %ID/g
same,Kidneys uptake,[1]; 120 h post-injection,1.48 ± 0.44 %ID/g
same,Liver uptake,[1]; 120 h post-injection,0.26 ± 0.11 %ID/g
same,Lungs uptake,[1]; 120 h post-injection,0.07 ± 0.02 %ID/g
same,Muscle uptake,[1]; 120 h post-injection,0.01 ± 0.01 %ID/g
same,Pancreas uptake,[1]; 120 h post-injection,0.02 ± 0.02 %ID/g
same,Salivary glands uptake,[1]; 120 h post-injection,0.05 ± 0.03 %ID/g
same,Spleen uptake,[1]; 120 h post-injection,0.53 ± 0.35 %ID/g
same,Stomach uptake,[1]; 120 h post-injection,0.08 ± 0.15 %ID/g
same,Testes uptake,[1]; 120 h post-injection,0.16 ± 0.04 %ID/g
same,Thyroid uptake,[1]; 120 h post-injection,0.09 ± 0.04 %ID/g
same,Tumor uptake,[1]; 120 h post-injection,71.9 ± 19.4 %ID/g
same,Tumor:Blood uptake ratio,[1]; 120 h post-injection,3996 ± 2182
same,Tumor:Kidney uptake ratio,[1]; 120 h post-injection,46.4 ± 21.3
same,Tumor:Muscle uptake ratio,[1]; 120 h post-injection,12778 ± 19955
same,Tumor:Salivary gland uptake ratio,[1]; 120 h post-injection,1167 ± 531
same,Peaked tumor uptake relative to ^68Ga-labeled non-albumin-binder analog,"[1]; mouse, in vivo",~ 3 fold
same,Peaked average tumor uptake,[1]; peak over 1-120 h post-injection,~ 60 %ID/g
same,Time of peak tumor uptake,"[1]; post-injection, listed as 177Lu-labeled HTK03170",4 to 24 h
same,Median survival,[2]; 9.3 MBq injected,90 days
same,Median survival,[2]; 18.5 MBq injected,131 days
same,Body weight of the treated mice,[2]; 37 MBq injected,continuously increasing body weight
same,Median survival,[2]; 37 MBq injected,> 180 days
same,Kinetics value,[3]; source organ Brain,2.55E-02 MBq-h/MBq
same,Kinetics value,[3]; source organ Cortical bone,1.91E-01 MBq-h/MBq
same,Kinetics value,[3]; source organ Heart,7.94E-02 MBq-h/MBq
same,Kinetics value,[3]; source organ Kidneys,1.33E+00 MBq-h/MBq
same,Kinetics value,[3]; source organ Large intestine contents,1.12E-01 MBq-h/MBq
same,Kinetics value,[3]; source organ Liver,1.24E+00 MBq-h/MBq
same,Kinetics value,[3]; source organ Lungs,6.60E-02 MBq-h/MBq
same,Kinetics value,[3]; source organ Pancreas,4.12E-02 MBq-h/MBq
same,Kinetics value,[3]; source organ Remainder of the body,4.23E+00 MBq-h/MBq
same,Kinetics value,[3]; source organ Small intestine,3.35E-01 MBq-h/MBq
same,Kinetics value,[3]; source organ Spleen,1.04E-01 MBq-h/MBq
same,Kinetics value,[3]; source organ Stomach,1.32E-02 MBq-h/MBq
same,Kinetics value,[3]; source organ Testes,9.21E-02 MBq-h/MBq
same,Kinetics value,[3]; source organ Thyroid,5.15E-03 MBq-h/MBq
same,Kinetics value,[3]; source organ Urinary bladder,1.11E+00 MBq-h/MBq
